Measurements from US12559529B2, “NPY2 receptor agonists” (Boehringer Ingelheim International GmbH, priority 2019, dated 2026).
*1 amine or outer side, *2 acyl side, *3 side chain or, on linkers, in order; H or OH if unused. Where a SMILES comes first, the peptide text is derived from it. Side-chain parts run from the residue outwards. The star is where a group is joined. C18 diacid = O=C(O)CCCCCCCCCCCCCCCCC(=O)*; γGlu = O=C(O)[C@H](CCC(=O)[*:2])N[*:1]; Isovaleryl = CC(C)CC(=O)*; AEEA = NCCOCCOCC(=O)O

The molecules below were run against T1, Human Neuropeptide Y2 Receptor (Homo sapiens, UniProt P49146) (assay: Radioligand binding competition assay (RLB)). Details: Table 3; human 125I-PYY (1-36) 0.02 nM, Y2 receptor membranes; read-out: Ki.
T1 construct: purchased CHEMICON HTS066M
T1 sequence (P49146 1-381): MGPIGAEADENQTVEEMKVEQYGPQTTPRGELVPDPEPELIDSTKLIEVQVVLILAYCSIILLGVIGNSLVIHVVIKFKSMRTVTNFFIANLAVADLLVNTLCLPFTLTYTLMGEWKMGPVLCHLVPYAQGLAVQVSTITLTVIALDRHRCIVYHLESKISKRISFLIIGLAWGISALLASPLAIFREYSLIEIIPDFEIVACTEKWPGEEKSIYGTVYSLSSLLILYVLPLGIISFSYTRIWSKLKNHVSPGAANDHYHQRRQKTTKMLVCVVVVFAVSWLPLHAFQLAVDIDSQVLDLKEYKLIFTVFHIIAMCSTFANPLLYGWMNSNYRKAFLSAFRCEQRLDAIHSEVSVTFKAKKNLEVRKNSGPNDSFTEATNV
Outline: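 Competition binding on human Y2 receptor membranes, 0.5 μg protein/well, in 50 mM HEPES, 5 mM MgCl2, 1 mM CaCl2, pH 7.4, 0.2% ovalbumin; peptides diluted from 1 mM DMSO stocks.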

Structure (SMILES)	Ki [nM]
CC(C)CC(=O)N[C@@H](C)C(=O)N1CCC[C@H]1C(=O)N[C@@H](CCC(=O)O)C(=O)N[C@@H](CCCCNC(=O)COCCOCCNC(=O)COCCOCCNC(=O)CC[C@H](NC(=O)CCCCCCCCCCCCCCCCC(=O)O)C(=O)O)C(=O)N1CCC[C@H]1C(=O)N[C@@H](CCC(=O)O)C(=O)N[C@@H](CCC(=O)O)C(=O)N[C@@H](CC(=O)O)C(=O)N[C@@H](C)C(=O)N[C@@H](CO)C(=O)N1CCC[C@H]1C(=O)N[C@@H](C)C(=O)N[C@@H](CCC(=O)O)C(=O)N[C@@H](CC(C)C)C(=O)N[C@@H](CCC(N)=O)C(=O)N[C@@H](CCCNC(=N)N)C(=O)N[C@@H](Cc1ccc(O)cc1)C(=O)N[C@@H](Cc1ccc(O)cc1)C(=O)N[C@H](C(=O)N[C@@H](CCC(=O)O)C(=O)N[C@@H](CC(C)C)C(=O)N[C@@H](CCCNC(=N)N)C(=O)N[C@@H](Cc1c[nH]cn1)C(=O)N[C@@H](Cc1ccc(O)cc1)C(=O)N[C@@H](Cc1ccc(O)cc1)C(=O)N[C@@H](CC(N)=O)C(=O)N[C@@H](Cc1c[nH]c2ccccc12)C(=O)N[C@@H](CC(C)C)C(=O)N[C@H](C(=O)N[C@@H](CCCNC(=N)N)C(=O)N[C@@H](CCC(N)=O)C(=O)N[C@@H](CCCNC(=N)N)C(=O)N[C@@H](Cc1ccc(O)cc1)C(N)=O)[C@@H](C)O)C(C)C [Compound 215, N{alpha-4}-(3-methylbutanoyl)-N{epsilon-7}-[2-(2-{2-[2-(2-{2-[(4S)-4-carboxy-4-(17-carboxyheptadecanamido)butanamido]ethoxy}ethoxy)acetamido]ethoxy}ethoxy)acetamido]-[4A,7K,9E,15A,18Q,22V,23E,28Y,30W,31L]hPYY (4-36)]	0.48
CC(C)CC(=O)N[C@@H](C)C(=O)N1CCC[C@H]1C(=O)N[C@@H](C)C(=O)N[C@@H](CCCCNC(=O)COCCOCCNC(=O)COCCOCCNC(=O)CC[C@H](NC(=O)CCCCCCCCCCCCCCCCC(=O)O)C(=O)O)C(=O)N1CCC[C@H]1C(=O)N[C@@H](CCC(=O)O)C(=O)N[C@@H](CCC(=O)O)C(=O)N[C@@H](CC(=O)O)C(=O)N[C@@H](C)C(=O)N[C@@H](CO)C(=O)N1CCC[C@H]1C(=O)N[C@@H](CCC(=O)O)C(=O)N[C@@H](CCC(=O)O)C(=O)N[C@@H](CC(C)C)C(=O)N[C@@H](CCC(=O)O)C(=O)N[C@@H](CCC(N)=O)C(=O)N[C@@H](Cc1ccc(O)cc1)C(=O)N[C@@H](Cc1ccc(O)cc1)C(=O)N[C@H](C(=O)N[C@@H](CO)C(=O)N[C@@H](CC(C)C)C(=O)N[C@@H](CCCNC(=N)N)C(=O)N[C@@H](Cc1c[nH]cn1)C(=O)N[C@@H](Cc1ccc(O)cc1)C(=O)N[C@@H](Cc1ccc(O)cc1)C(=O)N[C@@H](CC(N)=O)C(=O)N[C@@H](Cc1c[nH]c2ccccc12)C(=O)N[C@@H](CC(C)C)C(=O)N[C@H](C(=O)N[C@@H](CCCNC(=N)N)C(=O)N[C@@H](CCC(N)=O)C(=O)N[C@@H](CCCNC(=N)N)C(=O)N[C@@H](Cc1ccc(O)cc1)C(N)=O)[C@@H](C)O)C(C)C [Compound 216, N{alpha-4}-(3-methylbutanoyl)-N{epsilon-7}-[2-(2-{2-[2-(2-{2-[(4S)-4-carboxy-4-(17-carboxyheptadecanamido)butanamido]ethoxy}ethoxy)acetamido]ethoxy}ethoxy)acetamido]-[4A,6A,7K,9E,18E,19Q,22V,28Y,30W,31L]hPYY (4-36)] (Isovaleryl-APAK([AEEA-AEEA-γGlu-C18 diacid])PEEDASPEELEQYYVSLRHYYNWLTRQRY-NH2)	0.93
CC(C)CC(=O)N[C@@H](C)C(=O)N1CCC[C@H]1C(=O)N[C@@H](CCC(=O)O)C(=O)N[C@@H](CCCCNC(=O)COCCOCCNC(=O)COCCOCCNC(=O)CC[C@H](NC(=O)CCCCCCCCCCCCCCCCC(=O)O)C(=O)O)C(=O)N1CCC[C@H]1C(=O)N[C@@H](CCC(=O)O)C(=O)N[C@@H](CCC(=O)O)C(=O)N[C@@H](CC(=O)O)C(=O)N[C@@H](CO)C(=O)N[C@@H](CO)C(=O)N1CCC[C@H]1C(=O)N[C@@H](CCC(=O)O)C(=O)N[C@@H](CCC(=O)O)C(=O)N[C@@H](CC(C)C)C(=O)N[C@@H](CCC(N)=O)C(=O)N[C@@H](CCCNC(=N)N)C(=O)N[C@@H](Cc1ccc(O)cc1)C(=O)N[C@@H](Cc1ccc(O)cc1)C(=O)N[C@H](C(=O)N[C@@H](C)C(=O)N[C@@H](CC(C)C)C(=O)N[C@@H](CCCNC(=N)N)C(=O)N[C@@H](Cc1c[nH]cn1)C(=O)N[C@@H](Cc1ccc(O)cc1)C(=O)N[C@@H](Cc1ccc(O)cc1)C(=O)N[C@@H](CC(N)=O)C(=O)N[C@@H](Cc1c[nH]c2ccccc12)C(=O)N[C@@H](CC(C)C)C(=O)N[C@H](C(=O)N[C@@H](CCCNC(=N)N)C(=O)N[C@@H](CCC(N)=O)C(=O)N[C@@H](CCCNC(=N)N)C(=O)N[C@@H](Cc1ccc(O)cc1)C(N)=O)[C@@H](C)O)C(C)C [Compound 218, N{alpha-4}-(3-methylbutanoyl)-N{epsilon-7}-[2-(2-{2-[2-(2-{2-[(4S)-4-carboxy-4-(17-carboxyheptadecanamido)butanamido]ethoxy}ethoxy)acetamido]ethoxy}ethoxy)acetamido]-[4A,7K,9E,12S,18Q,22V,23A,28Y,30W,31L]hPYY (4-36)]	1.49
CC(C)CC(=O)N[C@@H](C)C(=O)N1CCC[C@H]1C(=O)N[C@@H](CCC(=O)O)C(=O)N[C@@H](CCCCNC(=O)COCCOCCNC(=O)COCCOCCNC(=O)CC[C@H](NC(=O)CCCCCCCCCCCCCCCCC(=O)O)C(=O)O)C(=O)N1CCC[C@H]1C(=O)N[C@@H](CCC(=O)O)C(=O)N[C@@H](CCC(=O)O)C(=O)N[C@@H](CCC(=O)O)C(=O)N[C@@H](C)C(=O)N[C@@H](C)C(=O)N1CCC[C@H]1C(=O)N[C@@H](CCC(=O)O)C(=O)N[C@@H](CCC(=O)O)C(=O)N[C@@H](CC(C)C)C(=O)N[C@@H](CCC(N)=O)C(=O)N[C@@H](CCCNC(=N)N)C(=O)N[C@@H](Cc1ccc(O)cc1)C(=O)N[C@@H](Cc1ccc(O)cc1)C(=O)N[C@H](C(=O)N[C@@H](CO)C(=O)N[C@@H](CC(C)C)C(=O)N[C@@H](CCCNC(=N)N)C(=O)N[C@@H](Cc1c[nH]cn1)C(=O)N[C@@H](Cc1ccc(O)cc1)C(=O)N[C@@H](Cc1ccc(O)cc1)C(=O)N[C@@H](CC(N)=O)C(=O)N[C@@H](Cc1c[nH]c2ccccc12)C(=O)N[C@@H](CC(C)C)C(=O)N[C@H](C(=O)N[C@@H](CCCNC(=N)N)C(=O)N[C@@H](CCC(N)=O)C(=O)N[C@@H](CCCNC(=N)N)C(=O)N[C@@H](Cc1ccc(O)cc1)C(N)=O)[C@@H](C)O)C(C)C [Compound 219, N{alpha-4}-(3-methylbutanoyl)-N{epsilon-7}-[2-(2-{2-[2-(2-{2-[(4S)-4-carboxy-4-(17-carboxyheptadecanamido)butanamido]ethoxy}ethoxy)acetamido]ethoxy}ethoxy)acetamido]-[4A,7K,9E,11E,13A,18Q,22V,28Y,30W,31L]hPYY (4-36)]	7.6
CC(C)CC(=O)N[C@@H](C)C(=O)N1CCC[C@H]1C(=O)N[C@@H](CCC(=O)O)C(=O)N[C@@H](CCCCNC(=O)COCCOCCNC(=O)COCCOCCNC(=O)CC[C@H](NC(=O)CCCCCCCCCCCCCCCCC(=O)O)C(=O)O)C(=O)N1CCC[C@H]1C(=O)N[C@@H](CCC(=O)O)C(=O)N[C@@H](CCC(=O)O)C(=O)N[C@@H](C)C(=O)N[C@@H](C)C(=O)N[C@@H](CO)C(=O)N[C@@H](C)C(=O)N[C@@H](CCC(=O)O)C(=O)N[C@@H](CCC(=O)O)C(=O)N[C@@H](CC(C)C)C(=O)N[C@@H](CCC(N)=O)C(=O)N[C@@H](CCCNC(=N)N)C(=O)N[C@@H](Cc1ccc(O)cc1)C(=O)N[C@@H](Cc1ccc(O)cc1)C(=O)N[C@H](C(=O)N[C@@H](CO)C(=O)N[C@@H](CC(C)C)C(=O)N[C@@H](CCCNC(=N)N)C(=O)N[C@@H](Cc1c[nH]cn1)C(=O)N[C@@H](Cc1ccc(O)cc1)C(=O)N[C@@H](Cc1ccc(O)cc1)C(=O)N[C@@H](CC(N)=O)C(=O)N[C@@H](Cc1c[nH]c2ccccc12)C(=O)N[C@@H](CC(C)C)C(=O)N[C@H](C(=O)N[C@@H](CCCNC(=N)N)C(=O)N[C@@H](CCC(N)=O)C(=O)N[C@@H](CCCNC(=N)N)C(=O)N[C@@H](Cc1ccc(O)cc1)C(N)=O)[C@@H](C)O)C(C)C [Compound 220, N{alpha-4}-(3-methylbutanoyl)-N{epsilon-7}-[2-(2-{2-[2-(2-{2-[(4S)-4-carboxy-4-(17-carboxyheptadecanamido)butanamido]ethoxy}ethoxy)acetamido]ethoxy}ethoxy)acetamido]-[4A,7K,9E,11A,14A,18Q,22V,28Y,30W,31L]hPYY (4-36)]	2.99
